# Results reported in ChEMBL document CHEMBL2069200, “Synthesis and evaluation of 4-(substituted styryl/alkenyl)-3,5-bis(4-hydroxyphenyl)-isoxazoles as ligands for the estrogen receptor” (Bioorg Med Chem Lett, 2012).
# Biological target: T1, Estrogen receptor (Homo sapiens) (UniProt P03372)
# T1 sequence (whole entry): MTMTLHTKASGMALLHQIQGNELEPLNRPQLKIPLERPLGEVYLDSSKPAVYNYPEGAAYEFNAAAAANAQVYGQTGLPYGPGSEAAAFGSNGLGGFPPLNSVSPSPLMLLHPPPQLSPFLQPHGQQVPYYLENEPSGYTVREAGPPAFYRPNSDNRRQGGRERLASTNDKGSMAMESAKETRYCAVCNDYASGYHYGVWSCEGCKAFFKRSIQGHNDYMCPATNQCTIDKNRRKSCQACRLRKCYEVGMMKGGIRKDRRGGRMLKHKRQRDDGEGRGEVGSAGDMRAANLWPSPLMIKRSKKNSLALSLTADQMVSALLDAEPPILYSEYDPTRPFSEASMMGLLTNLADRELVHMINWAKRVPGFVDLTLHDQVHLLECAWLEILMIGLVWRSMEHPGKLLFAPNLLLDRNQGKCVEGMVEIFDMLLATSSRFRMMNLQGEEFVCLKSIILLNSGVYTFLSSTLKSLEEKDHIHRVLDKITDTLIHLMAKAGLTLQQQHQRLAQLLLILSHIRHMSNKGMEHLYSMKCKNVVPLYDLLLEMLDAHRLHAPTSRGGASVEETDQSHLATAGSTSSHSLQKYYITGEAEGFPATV
# Assay: Displacement of [3H]-estradiol from human ERalpha LBD expressed in Escherichia coli assessed as relative binding affinity relative to estradiol
row,Structure (SMILES),RBA
1,CCc1c(-c2ccc(O)cc2)nn(-c2ccc(O)cc2)c1-c1ccc(O)cc1,36%
2,Cc1ccc(/C=C/c2c(-c3ccc(O)cc3)noc2-c2ccc(O)cc2)cc1,0.6%
3,Oc1ccc(/C=C/c2c(-c3ccc(O)cc3)noc2-c2ccc(O)cc2)cc1,16.4%
4,CC(C)(C)/C=C/c1c(-c2ccc(O)cc2)noc1-c1ccc(O)cc1,4.3%
5,CCCCCCC/C=C/c1c(-c2ccc(O)cc2)noc1-c1ccc(O)cc1,1.3%
6,CCCCC/C=C/c1c(-c2ccc(O)cc2)noc1-c1ccc(O)cc1,1.8%
7,Oc1ccc(-c2noc(-c3ccc(O)cc3)c2/C=C/c2ccc(C(F)(F)F)cc2)cc1,5.3%
8,Oc1ccc(-c2noc(-c3ccc(O)cc3)c2/C=C/c2cccc(C(F)(F)F)c2)cc1,1.5%

# Results, then the compound that gave them:
row,RBA,Structure (SMILES)
1,3.5%,Oc1ccc(-c2noc(-c3ccc(O)cc3)c2/C=C/c2ccccc2)cc1
2,0.8%,Oc1ccc(-c2noc(-c3ccc(O)cc3)c2/C=C/c2ccc(Cl)cc2)cc1
3,30%,Oc1ccc(-c2noc(-c3ccc(O)cc3)c2-c2ccc(O)cc2)cc1
4,3.1%,Oc1ccc(-c2noc(-c3ccc(O)cc3)c2/C=C/c2ccc(F)cc2)cc1
5,2.5%,CCCCCC/C=C/c1c(-c2ccc(O)cc2)noc1-c1ccc(O)cc1
6,8.7%,Oc1ccc(-c2noc(-c3ccc(O)cc3)c2/C=C\c2ccccc2)cc1
7,8.7%,Oc1ccc(-c2noc(-c3ccc(O)cc3)c2/C=C/c2cccc(O)c2)cc1
